Measured values published in US20090143279A1 (priority 2007, published 2009).
Read-outs that look alike come from different tables or passages of the source.

Tests used:
[1] = tested on: mitochondrial membrane potential; format: cell-based, mouse
reactive oxygen species = format: cell-based, mouse
OXPHOS gene expression = format: cell-based, mouse
nuOXPHOS transcripts = format: cell-based, mouse
mtOXPHOS transcripts = format: cell-based, mouse
cytochrome c = format: cell-based, mouse
[2] = tested on: cellular dehydrogenase activity
[3] = 20 μM, composite Z-score vs DMSO
[4] = composite Z-score vs DMSO wells, Conc 20 μM
[5] = composite Z-score vs DMSO, Conc 11.16 μM
[6] = composite Z-score vs mock-treated (DMSO) wells, Conc 20 μM
[7] = 10.86 μM, composite Z-score vs DMSO
[8] = composite Z-score vs DMSO, Conc 20 μM
[9] = normalized composite Z-score vs mock-treated (DMSO) wells, Conc 20 μM

## Nc1ccc(C(=O)[O-])cc1.[K+] [potassium p-aminobenzoate]
[1]; [3]
  ΔΨm: −0.826
Reactive oxygen species; [3]
  ROS: 0.818
OXPHOS gene expression; [3]
  GE-HTS: −1.001
nuOXPHOS transcripts; [3]
  nucOX: −1.085
mtOXPHOS transcripts; [3]
  mitoOX: −0.673
Cytochrome c; [3]
  cyt c: 0.519
C2C12 myotubes; [3]
  Viability: −0.277
[2]; [3]
  MTT: −1.445

## C[C@]12C=CC(=O)C=C1CC[C@@H]1[C@@H]2C(=O)C[C@@]2(C)[C@H]1CC[C@]2(O)C(=O)CO [prednisone]
[1]; [4]
  ΔΨm: 0.258
[1]; [5]
  ΔΨm: −0.474
Reactive oxygen species; [4]
  ROS: 0.253
Reactive oxygen species; [5]
  ROS: 0.623
OXPHOS gene expression; [4]
  GE-HTS: −0.290
OXPHOS gene expression; [5]
  GE-HTS: −0.315
nuOXPHOS transcripts; [4]
  nucOX: −0.177
nuOXPHOS transcripts; [5]
  nucOX: −0.432
mtOXPHOS transcripts; [4]
  mitoOX: −0.473
mtOXPHOS transcripts; [5]
  mitoOX: −0.048
Cytochrome c; [4]
  cyt c: −0.034
Cytochrome c; [5]
  cyt c: −0.428
C2C12 myotubes; [4]
  Viability: −0.474
C2C12 myotubes; [5]
  Viability: −1.668
[2]; [4]
  MTT: −1.054
[2]; [5]
  MTT: −1.206

## CC(C)=CCOc1cc2oc(=O)ccc2cc1O [prenyletin]
[1]; [6]
  ΔΨm: 0.772
Reactive oxygen species; [6]
  ROS: −0.090
OXPHOS gene expression; [6]
  GE-HTS: 0.113
nuOXPHOS transcripts; [6]
  nucOX: −0.015
mtOXPHOS transcripts; [6]
  mitoOX: 0.282
Cytochrome c; [6]
  cyt c: 0.150
C2C12 myotubes; [6]
  Viability: 0.919
[2]; [6]
  MTT: −1.166

## CCCC(C(=O)OCCN(CC)CC)(c1ccccc1)c1ccccc1 [proadifen]
[1]
  ΔΨm: −0.557
[1]; [3]
  ΔΨm: −0.654
Reactive oxygen species
  ROS: 0.616
Reactive oxygen species; [3]
  ROS: 0.678
OXPHOS gene expression
  GE-HTS: −0.364
OXPHOS gene expression; [3]
  GE-HTS: −0.377
nuOXPHOS transcripts
  nucOX: −0.414
nuOXPHOS transcripts; [3]
  nucOX: −0.243
mtOXPHOS transcripts
  mitoOX: −0.201
mtOXPHOS transcripts; [3]
  mitoOX: −0.595
Cytochrome c
  cyt c: 0.223
Cytochrome c; [3]
  cyt c: −0.077
C2C12 myotubes
  Viability: −0.388
C2C12 myotubes; [3]
  Viability: −1.715
[2]
  MTT: −1.220
[2]; [3]
  MTT: −1.808

## CC(C)(Sc1cc(C(C)(C)C)c(O)c(C(C)(C)C)c1)Sc1cc(C(C)(C)C)c(O)c(C(C)(C)C)c1 [probucol]
[1]; [4]
  ΔΨm: −0.142
Reactive oxygen species; [4]
  ROS: 0.464
OXPHOS gene expression; [4]
  GE-HTS: −0.053
nuOXPHOS transcripts; [4]
  nucOX: −0.002
mtOXPHOS transcripts; [4]
  mitoOX: −0.136
Cytochrome c
  cyt c: −0.232
Cytochrome c; [4]
  cyt c: −0.180
C2C12 myotubes; [4]
  Viability: −0.586
[2]; [4]
  MTT: −1.114

## CCCN(CCC)C(=O)C(CCC(=O)O)NC(=O)c1ccccc1 (stereo not drawn) [proglumide]
[1]; [3]
  ΔΨm: −0.910
Reactive oxygen species; [3]
  ROS: 2.083
OXPHOS gene expression; [3]
  GE-HTS: −0.541
nuOXPHOS transcripts; [3]
  nucOX: −0.394
mtOXPHOS transcripts; [3]
  mitoOX: −0.730
Cytochrome c
  cyt c: −0.001
Cytochrome c; [3]
  cyt c: −0.033
C2C12 myotubes; [3]
  Viability: −0.750
[2]; [3]
  MTT: −1.254

## CC(C)[N+](C)(CCOC(=O)C1c2ccccc2Oc2ccccc21)C(C)C [propantheline]
[1]; [7]
  ΔΨm: −0.893
[1]; [3]
  ΔΨm: −0.082
Reactive oxygen species; [7]
  ROS: 0.589
Reactive oxygen species; [3]
  ROS: 2.062
OXPHOS gene expression; [7]
  GE-HTS: −0.301
OXPHOS gene expression; [3]
  GE-HTS: 0.458
nuOXPHOS transcripts; [7]
  nucOX: 0.104
nuOXPHOS transcripts; [3]
  nucOX: 0.254
mtOXPHOS transcripts; [7]
  mitoOX: −1.055
mtOXPHOS transcripts; [3]
  mitoOX: 0.783
Cytochrome c; [7]
  cyt c: −0.615
Cytochrome c; [3]
  cyt c: 0.379
C2C12 myotubes; [7]
  Viability: −0.361
C2C12 myotubes; [3]
  Viability: 0.142
[2]; [7]
  MTT: −1.670
[2]; [3]
  MTT: −1.026

## CC[C@@H](C)C(=O)O[C@H]1[C@H](O)[C@H]2[C@@H](CN3C[C@@H](C)CC[C@H]3[C@@]2(C)O)[C@@H]2C[C@]34O[C@]5(O)[C@@H](OC(=O)[C@@](C)(O)CC)CC[C@@]3(C)[C@@H]5[C@@H](OC(C)=O)[C@@H](OC(C)=O)[C@H]4[C@@]21O [protoveratrine A]
[1]; [8]
  ΔΨm: 0.394
Reactive oxygen species; [8]
  ROS: −0.267
OXPHOS gene expression; [8]
  GE-HTS: −1.106
nuOXPHOS transcripts; [8]
  nucOX: −0.978
mtOXPHOS transcripts; [8]
  mitoOX: −1.108
Cytochrome c; [8]
  cyt c: 1.155
C2C12 myotubes; [8]
  Viability: 0.243
[2]; [8]
  MTT: −0.100

## CC1=CCc2c(cc3oc(C)cc(=O)c3c2O)OC1 [ptaeroxylin]
[1]; [6]
  ΔΨm: 0.238
Reactive oxygen species; [6]
  ROS: 0.259
OXPHOS gene expression; [6]
  GE-HTS: −0.853
nuOXPHOS transcripts; [6]
  nucOX: −0.907
mtOXPHOS transcripts; [6]
  mitoOX: −0.641
Cytochrome c; [6]
  cyt c: 0.599
C2C12 myotubes; [6]
  Viability: −0.025
[2]; [6]
  MTT: 0.160

## CC1(O)/C=C\C=C(\CO)C2CC(C)(C)C2(O)CC1 (stereo not drawn) [punctaporin B]
[1]; [9]
  ΔΨm: −0.174
Reactive oxygen species; [9]
  ROS: 0.731
OXPHOS gene expression; [9]
  GE-HTS: −0.242
nuOXPHOS transcripts; [9]
  nucOX: −0.049
mtOXPHOS transcripts; [9]
  mitoOX: −0.555
Cytochrome c; [9]
  cyt c: 0.175
C2C12 myotubes; [9]
  Viability: 0.554
[2]; [9]
  MTT: −0.596

## CN1CCCN=C1/C=C/c1cccs1 [pyrantel pamoate]
[1]
  ΔΨm: −2.829
Reactive oxygen species
  ROS: 0.592
OXPHOS gene expression
  GE-HTS: −0.468
nuOXPHOS transcripts
  nucOX: −0.500
mtOXPHOS transcripts
  mitoOX: −0.327
Cytochrome c
  cyt c: 0.640
C2C12 myotubes
  Viability: −1.934
[2]
  MTT: −0.189

## CCc1nc(N)nc(N)c1-c1ccc(Cl)cc1 [pyrimethamine]
[1]; [4]
  ΔΨm: −0.696
Reactive oxygen species; [4]
  ROS: 0.329
OXPHOS gene expression; [4]
  GE-HTS: −0.657
nuOXPHOS transcripts; [4]
  nucOX: −0.526
mtOXPHOS transcripts; [4]
  mitoOX: −0.825
Cytochrome c
  cyt c: 1.048
Cytochrome c; [4]
  cyt c: −0.306
C2C12 myotubes; [4]
  Viability: 0.994
[2]; [4]
  MTT: −1.810
